Columns and labels:
Experiment in all cases: Inhibition of bacteria growth, drug dilution tubes, anaerobic
Type in all cases: cell-based
Parameters in all cases: key to growth: (+) for growth; (−) for no growth; (±) for suboptimal growth after an initial observation of growth
[1] = system: Mobiluncus mulieris ATCC 35243
Procedure: (§1) Serial dilutions of tinidazole and terconazole were prepared by adding measured amounts of each substance to water (both individually and in combination). Seven bacterial organisms that are common pathogens in bacterial vaginosis were grown anaerobically in the medium as listed in Table 4 under a N2/H2/CO2 (85:5:10) head space atmosphere. [table] These cultures were diluted to a 0.5 McFarland standard prior to inoculation of drug dilution tubes. One (1) mL of the 0.5 McFarland preparation was inoculated to an anaerobically prepared test tube containing 0.8 mL of Difco anaerobic medium (DAMM) and 0.2 mL of appropriate diluted antimicrobial or antimicrobial combination for a total of 2 mL. The inoculated tubes were then incubated at 37° C. and monitored daily for growth. Growth was scored with a (+) for growth, (−) for no growth, and (±) for suboptimal growth after an initial observation of growth. Tinidazole is abbreviated as TNZ and terconazole is abbreviated as TER in Tables 5 through 11.

Atopobium vaginae BAA-55 = system: Atopobium vaginae BAA-55
Procedure: as §1

[2] = system: Gardnerella vaginalis ATCC 14019
Procedure: as §1

`CCS(=O)(=O)CCn1c([N+](=O)[O-])cnc1C` [TNZ, 1-[2-(ethylsulfonyl)ethyl]-2-methyl-5-nitroimidazole] was tested, and the growth ([1]; TNZ 2 μg/ml, DAY 1) was “(+)”, the growth ([1]; TNZ 2 μg/ml, DAY 2) was “(+)” and the growth ([1]; TNZ 2 μg/ml, DAY 3) was “(+)”. The growth ([1]; TNZ 2 μg/ml, DAY 4) was “(+)”, the growth ([1]; TNZ 2 μg/ml, DAY 5) was “(+)” and the growth ([1]; TNZ 3.9 μg/ml, DAY 1) was “(+)”. The growth ([1]; TNZ 3.9 μg/ml, DAY 2) was “(+)”, the growth ([1]; TNZ 3.9 μg/ml, DAY 3) was “(+)” and the growth ([1]; TNZ 3.9 μg/ml, DAY 4) was “(+)”. The growth ([1]; TNZ 3.9 μg/ml, DAY 5) was “(+)”, the growth ([1]; TNZ 7.8 μg/ml, DAY 1) was “(+)” and the growth ([1]; TNZ 7.8 μg/ml, DAY 2) was “(+)”. For the same compound, the growth ([1]; TNZ 7.8 μg/ml, DAY 3) was “(+)”, the growth ([1]; TNZ 7.8 μg/ml, DAY 4) was “(+)” and the growth ([1]; TNZ 7.8 μg/ml, DAY 5) was “(+)”. For the same compound, the growth ([1]; TNZ 15.6 μg/ml, DAY 1) was “(−)”, the growth ([1]; TNZ 15.6 μg/ml, DAY 2) was “(−)” and the growth ([1]; TNZ 15.6 μg/ml, DAY 3) was “(−)”. The growth ([1]; TNZ 15.6 μg/ml, DAY 4) was “(+)”, the growth ([1]; TNZ 15.6 μg/ml, DAY 5) was “(+)” and the growth ([1]; TNZ 31.3 μg/ml, DAY 1) was “(−)”. The growth ([1]; TNZ 31.3 μg/ml, DAY 2) was “(−)”, the growth ([1]; TNZ 31.3 μg/ml, DAY 3) was “(−)” and the growth ([1]; TNZ 31.3 μg/ml, DAY 4) was “(+)”. For the same compound, the growth ([1]; TNZ 31.3 μg/ml, DAY 5) was “(+)”, the growth ([1]; TNZ 62.5 μg/ml, DAY 1) was “(−)” and the growth ([1]; TNZ 62.5 μg/ml, DAY 2) was “(−)”. The growth ([1]; TNZ 62.5 μg/ml, DAY 3) was “(−)”, the growth ([1]; TNZ 62.5 μg/ml, DAY 4) was “(−)” and the growth ([1]; TNZ 62.5 μg/ml, DAY 5) was “(−)”. The growth ([1]; TNZ 125 μg/ml, DAY 1) was “(−)”, the growth ([1]; TNZ 125 μg/ml, DAY 2) was “(−)” and the growth ([1]; TNZ 125 μg/ml, DAY 3) was “(−)”. The growth ([1]; TNZ 125 μg/ml, DAY 4) was “(−)”, the growth ([1]; TNZ 125 μg/ml, DAY 5) was “(−)” and the growth ([1]; TNZ 250 μg/ml, DAY 1) was “(−)”. For the same compound, the growth ([1]; TNZ 250 μg/ml, DAY 2) was “(−)”, the growth ([1]; TNZ 250 μg/ml, DAY 3) was “(−)” and the growth ([1]; TNZ 250 μg/ml, DAY 4) was “(−)”. For the same compound, the growth ([1]; TNZ 250 μg/ml, DAY 5) was “(−)”, the growth ([1]; TNZ 500 μg/ml, DAY 1) was “(−)” and the growth ([1]; TNZ 500 μg/ml, DAY 2) was “(−)”. For the same compound, the growth ([1]; TNZ 500 μg/ml, DAY 3) was “(−)”, the growth ([1]; TNZ 500 μg/ml, DAY 4) was “(−)” and the growth ([1]; TNZ 500 μg/ml, DAY 5) was “(−)”. For the same compound, the growth (Atopobium vaginae BAA-55; TNZ 2 μg/ml, DAY 1) was “(+)”, the growth (Atopobium vaginae BAA-55; TNZ 2 μg/ml, DAY 2) was “(+)” and the growth (Atopobium vaginae BAA-55; TNZ 2 μg/ml, DAY 3) was “(+)”. For the same compound, the growth (Atopobium vaginae BAA-55; TNZ 2 μg/ml, DAY 4) was “(+)”, the growth (Atopobium vaginae BAA-55; TNZ 2 μg/ml, DAY 5) was “(+)” and the growth (Atopobium vaginae BAA-55; TNZ 3.9 μg/ml, DAY 1) was “(+)”. For the same compound, the growth (Atopobium vaginae BAA-55; TNZ 3.9 μg/ml, DAY 2) was “(+)”, the growth (Atopobium vaginae BAA-55; TNZ 3.9 μg/ml, DAY 3) was “(+)” and the growth (Atopobium vaginae BAA-55; TNZ 3.9 μg/ml, DAY 4) was “(+)”. For the same compound, the growth (Atopobium vaginae BAA-55; TNZ 3.9 μg/ml, DAY 5) was “(+)”, the growth (Atopobium vaginae BAA-55; TNZ 7.8 μg/ml, DAY 1) was “(+)” and the growth (Atopobium vaginae BAA-55; TNZ 7.8 μg/ml, DAY 2) was “(+)”. For the same compound, the growth (Atopobium vaginae BAA-55; TNZ 7.8 μg/ml, DAY 3) was “(+)”, the growth (Atopobium vaginae BAA-55; TNZ 7.8 μg/ml, DAY 4) was “(+)” and the growth (Atopobium vaginae BAA-55; TNZ 7.8 μg/ml, DAY 5) was “(+)”. For the same compound, the growth (Atopobium vaginae BAA-55; TNZ 15.6 μg/ml, DAY 1) was “(−)”, the growth (Atopobium vaginae BAA-55; TNZ 15.6 μg/ml, DAY 2) was “(+)” and the growth (Atopobium vaginae BAA-55; TNZ 15.6 μg/ml, DAY 3) was “(+)”. For the same compound, the growth (Atopobium vaginae BAA-55; TNZ 15.6 μg/ml, DAY 4) was “(+)”, the growth (Atopobium vaginae BAA-55; TNZ 15.6 μg/ml, DAY 5) was “(+)” and the growth (Atopobium vaginae BAA-55; TNZ 31.3 μg/ml, DAY 1) was “(−)”. For the same compound, the growth (Atopobium vaginae BAA-55; TNZ 31.3 μg/ml, DAY 2) was “(+)”, the growth (Atopobium vaginae BAA-55; TNZ 31.3 μg/ml, DAY 3) was “(+)” and the growth (Atopobium vaginae BAA-55; TNZ 31.3 μg/ml, DAY 4) was “(+)”. For the same compound, the growth (Atopobium vaginae BAA-55; TNZ 31.3 μg/ml, DAY 5) was “(+)”, the growth (Atopobium vaginae BAA-55; TNZ 62.5 μg/ml, DAY 1) was “(−)” and the growth (Atopobium vaginae BAA-55; TNZ 62.5 μg/ml, DAY 2) was “(+)”. The growth (Atopobium vaginae BAA-55; TNZ 62.5 μg/ml, DAY 3) was “(+)”, the growth (Atopobium vaginae BAA-55; TNZ 62.5 μg/ml, DAY 4) was “(+)” and the growth (Atopobium vaginae BAA-55; TNZ 62.5 μg/ml, DAY 5) was “(+)”. The growth (Atopobium vaginae BAA-55; TNZ 125 μg/ml, DAY 1) was “(−)”, the growth (Atopobium vaginae BAA-55; TNZ 125 μg/ml, DAY 2) was “(+)” and the growth (Atopobium vaginae BAA-55; TNZ 125 μg/ml, DAY 3) was “(+)”. For the same compound, the growth (Atopobium vaginae BAA-55; TNZ 125 μg/ml, DAY 4) was “(+)”, the growth (Atopobium vaginae BAA-55; TNZ 125 μg/ml, DAY 5) was “(+)” and the growth (Atopobium vaginae BAA-55; TNZ 250 μg/ml, DAY 1) was “(−)”. For the same compound, the growth (Atopobium vaginae BAA-55; TNZ 250 μg/ml, DAY 2) was “(+)”, the growth (Atopobium vaginae BAA-55; TNZ 250 μg/ml, DAY 3) was “(+)” and the growth (Atopobium vaginae BAA-55; TNZ 250 μg/ml, DAY 4) was “(+)”. The growth (Atopobium vaginae BAA-55; TNZ 250 μg/ml, DAY 5) was “(+)”, the growth (Atopobium vaginae BAA-55; TNZ 500 μg/ml, DAY 1) was “(−)” and the growth (Atopobium vaginae BAA-55; TNZ 500 μg/ml, DAY 2) was “(−)”. For the same compound, the growth (Atopobium vaginae BAA-55; TNZ 500 μg/ml, DAY 3) was “(+)”, the growth (Atopobium vaginae BAA-55; TNZ 500 μg/ml, DAY 4) was “(+)” and the growth (Atopobium vaginae BAA-55; TNZ 500 μg/ml, DAY 5) was “(+)”. For the same compound, the growth ([2]; TNZ 2 μg/ml, DAY 1) was “(+)”, the growth ([2]; TNZ 2 μg/ml, DAY 2) was “(+)” and the growth ([2]; TNZ 2 μg/ml, DAY 3) was “(+)”. The growth ([2]; TNZ 2 μg/ml, DAY 4) was “(+)”, the growth ([2]; TNZ 2 μg/ml, DAY 5) was “(+)” and the growth ([2]; TNZ 3.9 μg/ml, DAY 1) was “(+)”. For the same compound, the growth ([2]; TNZ 3.9 μg/ml, DAY 2) was “(+)”, the growth ([2]; TNZ 3.9 μg/ml, DAY 3) was “(+)” and the growth ([2]; TNZ 3.9 μg/ml, DAY 4) was “(+)”. For the same compound, the growth ([2]; TNZ 3.9 μg/ml, DAY 5) was “(+)”, the growth ([2]; TNZ 7.8 μg/ml, DAY 1) was “(+)” and the growth ([2]; TNZ 7.8 μg/ml, DAY 2) was “(+)”. For the same compound, the growth ([2]; TNZ 7.8 μg/ml, DAY 3) was “(+)”, the growth ([2]; TNZ 7.8 μg/ml, DAY 4) was “(+)” and the growth ([2]; TNZ 7.8 μg/ml, DAY 5) was “(+)”. For the same compound, the growth ([2]; TNZ 15.6 μg/ml, DAY 1) was “(+)”, the growth ([2]; TNZ 15.6 μg/ml, DAY 2) was “(+)” and the growth ([2]; TNZ 15.6 μg/ml, DAY 3) was “(+)”. For the same compound, the growth ([2]; TNZ 15.6 μg/ml, DAY 4) was “(+)”, the growth ([2]; TNZ 15.6 μg/ml, DAY 5) was “(+)” and the growth ([2]; TNZ 31.3 μg/ml, DAY 1) was “(+)”. The growth ([2]; TNZ 31.3 μg/ml, DAY 2) was “(+)”, the growth ([2]; TNZ 31.3 μg/ml, DAY 3) was “(+)” and the growth ([2]; TNZ 31.3 μg/ml, DAY 4) was “(+)”. For the same compound, the growth ([2]; TNZ 31.3 μg/ml, DAY 5) was “(+)”, the growth ([2]; TNZ 62.5 μg/ml, DAY 1) was “(+)” and the growth ([2]; TNZ 62.5 μg/ml, DAY 2) was “(+)”. For the same compound, the growth ([2]; TNZ 62.5 μg/ml, DAY 3) was “(+)”, the growth ([2]; TNZ 62.5 μg/ml, DAY 4) was “(+)” and the growth ([2]; TNZ 62.5 μg/ml, DAY 5) was “(+)”. For the same compound, the growth ([2]; TNZ 125 μg/ml, DAY 1) was “(+)”, the growth ([2]; TNZ 125 μg/ml, DAY 2) was “(+)” and the growth ([2]; TNZ 125 μg/ml, DAY 3) was “(+)”. For the same compound, the growth ([2]; TNZ 125 μg/ml, DAY 4) was “(+)”, the growth ([2]; TNZ 125 μg/ml, DAY 5) was “(+)” and the growth ([2]; TNZ 250 μg/ml, DAY 1) was “(+)”. The growth ([2]; TNZ 250 μg/ml, DAY 2) was “(+)”, the growth ([2]; TNZ 250 μg/ml, DAY 3) was “(+)” and the growth ([2]; TNZ 250 μg/ml, DAY 4) was “(+)”. For the same compound, the growth ([2]; TNZ 250 μg/ml, DAY 5) was “(+)”, the growth ([2]; TNZ 500 μg/ml, DAY 1) was “(+)” and the growth ([2]; TNZ 500 μg/ml, DAY 2) was “(+)”. For the same compound, the growth ([2]; TNZ 500 μg/ml, DAY 3) was “(+)”, the growth ([2]; TNZ 500 μg/ml, DAY 4) was “(+)” and the growth ([2]; TNZ 500 μg/ml, DAY 5) was “(+)”.

From patent US20080063668A1, “Nitroimidazole and terconazole composition and method” (priority 2006, published 2008)
